# EPA's ToxValDB 9.5
# Tested on: Monkey
# Details: short-term; duration: 29 days; oral; capsule; M; Cynomolgus; blood: basophils + blood: eosinophils + blood: lymphocytes + blood: monocytes + blood: reticulocytes + blood: segmented neutrophils + blood…
structure (smiles),measurement,value
O=C([O-])C(F)(F)C(F)(F)C(F)(F)C(F)(F)C(F)(F)C(F)(F)C(F)(F)F.[NH4+] [Ammonium perfluorooctanoate],NOEL,20 mg/kg-day
